In article PMC11843658 (Journal of Enzyme Inhibition and Medicinal Chemistry, 2025):

Assays:
[1] = biological target: T1, MAO-A (Homo sapiens, UniProt P21397); assay: Inhibitory activity against MAO-A (kynuramine); format: biochemical; conditions: tested at 250, 500, and 1000 nM
T1 construct: purchased Servicebio (Wuhan, China)
Description: In order to analyse the enzymatic selectivity of compound 14, MAO-A/B was purchased from Servicebio (Wuhan, China). MAO-A was dissolved in phosphate buffer (0.1 M, pH = 7.4) to get MAO-A enzymatic buffer with a concentration of 0.006 mg/ml. MAO-B was also dissolved in phosphate buffer (0.1 M, pH = 7.3) to get MAO-B enzymatic buffer with a concentration of 0.015 mg/mL. Kynuramine dihydrochloride (Servicebio, Wuhan, China) was used to get the assay buffer with a concentration of 40 μM for MAO-A and 20 μM for MAO-B. An aliquot of 97 μl of assay buffer and 3 μl of compound 14 at different concentrations (250, 500, and 1000 nM) were added into each well on the 96-well black plate. The plate was incubated at 37 °C for 20 min, and 80 μl of 2 N sodium hydroxide was added into each well to stop the reaction. The fluorescence of each well was measured using a microplate reader (Agilent Technologies Inc., CA) with an excitation at 310 nm and an emission at 380 nm.

[2] = system: HUH6 cells; assay: CCK8 assay, HUH6 liver cancer cells; format: cell-based; conditions: Homo sapiens, HuH-6, CCK8, 48 h, 0-5 μM, read-out: IC50, antiproliferative activity
Description: (§1) C42B, PC3, Caco-2, HepG2, MCF7, HL-60, 8505 C, OVCAR-3, and A549 were cultured to screen the broad-spectrum antiproliferative activity of compound 14. For above cell lines, three thousand cells per well were seeded in the 96-well plate and treated by compound 14 for 48 or 72 h at different concentrations (0, 5, 10, and 20 μM). In addition, HepG2, HEP3B, HUH6, and HUH7 were cultured to screen its antiproliferative activity against liver cancer cell lines. For these liver cancer cell lines, two thousand cells per well were seeded in the 96-well plate and treated by compound 14 for 48 h at different concentrations (0, 0.625, 1.25, 2.5, and 5 μM). Then, 10 μl of CCK8 was added into each well and cells were incubated in a humidified atmosphere of 5% CO2 at 37 °C for 4 h. The 96-well plate was measured with a microplate reader (Bio-Tek, San Diego, CA) at a wavelength of 450 nm to calculate IC50 values.

[3] = system: A549 cells; assay: CCK8 assay, A549 lung cancer cells; format: cell-based; conditions: Homo sapiens, 10 μM, 48 h, read-out: cell viability rate
Description: as §1

[4] = system: HepG2 cells; assay: Xenograft study, HepG2 cells in nude mice; format: in vivo, BALB/c nude mice; conditions: 60 mg/kg by gavage every day for 21 days
Description: Tumorigenesis in nude mice could stimulate the growth process of human tumours in the body, and could be used to develop and evaluate the effectiveness and safety of anti-cancer candidates. Therefore, xenograft studies in nude mice were performed to evaluate anticancer effects of compound 14. Animals were treated according to the protocols established by the ethics committee of The Fourth Clinical College of Xinxiang Medical University. The in vivo experiments were carried out in accordance with the approved guidelines and approved by the ethics committee of The Fourth Clinical College of Xinxiang Medical University. The number of ethics approvals is XMU-2024–01-03. All authors have adhered to the ARRIVE guidelines (https://arriveguidelines.org/). BALB/c nude mice were purchased from Beijing Huafukang Biotechnology Co., LTD (Beijing, China), and fifteen mice were used in this study (aged 6–7 weeks and weighing 20–30 g). Before the animal experiments, all nude mice were given a week to adjust to the clean, hygienic and specific-pathogen-free environment. All nude mice were taken care of instainless steel cages with a constant temperature of 60% humidity, 25 °C and a 12/12 light/dark cycle. Nude mice were fed with refreshing water and nourishing food everyday.
Then, nude mice were anaesthetised with 2% isoflurane and 0.3 l/min of oxygen by the small animal anaesthesia machine (Beijing Yi Zejia Technology Co., LTD, Beijing, China). 3 × 10^5 human liver cancer HepG2 cells were subcutaneously injected in the right armpit of mice. Until the volume of tumours reached 60–100 mm^3, all mice were randomly divided into three groups and each group had five nude mice. An amount of 60 mg/kg of compound 14, 10 mg/kg of seclidemstat and water as the control group were given by gavage every day for 21 days. Weight of mice and tumour volume were measured every 3 d. All nude mice in this xenograft studies were performed euthanizing procedures using a carbon dioxide euthanasia chamber (Shanghai Yuyan Instruments Co., Ltd, Shanghai, China). The flow rate of carbon dioxide was adjusted at 20% of the volume of the euthanasia chamber per minute. Once nude mice were unconscious, the flow rate was increased to 100% of the euthanasia chamber volume per minute. Death was confirmed by immobility, non-breathing and pupil enlargement. Tumours form BALB/c nude mice were isolated and weighed.

[5] = biological target: LSD1 (Homo sapiens, UniProt O60341); assay: Dialysis assay to evaluate the reversibility; format: biochemical; conditions: dialysis against HEPES buffer, GSK-LSD1 as irreversible reference
Description: A mixture of compound 14 and the recombinant LSD1 was incubated for 60 min at 37 °C. Then, the system was dialysed against 50 mmol/l HEPES buffer at 37 °C for 12 h. Finally, the HEPES buffer was replaced and the system was incubated for 12 h at 37 °C. In the dialysis experiment, an irreversible inhibitor GSK-LSD1 was purchased as the reference drug (Innochem, Beijing, China).

T1 sequence (P21397 whole entry, species assumed): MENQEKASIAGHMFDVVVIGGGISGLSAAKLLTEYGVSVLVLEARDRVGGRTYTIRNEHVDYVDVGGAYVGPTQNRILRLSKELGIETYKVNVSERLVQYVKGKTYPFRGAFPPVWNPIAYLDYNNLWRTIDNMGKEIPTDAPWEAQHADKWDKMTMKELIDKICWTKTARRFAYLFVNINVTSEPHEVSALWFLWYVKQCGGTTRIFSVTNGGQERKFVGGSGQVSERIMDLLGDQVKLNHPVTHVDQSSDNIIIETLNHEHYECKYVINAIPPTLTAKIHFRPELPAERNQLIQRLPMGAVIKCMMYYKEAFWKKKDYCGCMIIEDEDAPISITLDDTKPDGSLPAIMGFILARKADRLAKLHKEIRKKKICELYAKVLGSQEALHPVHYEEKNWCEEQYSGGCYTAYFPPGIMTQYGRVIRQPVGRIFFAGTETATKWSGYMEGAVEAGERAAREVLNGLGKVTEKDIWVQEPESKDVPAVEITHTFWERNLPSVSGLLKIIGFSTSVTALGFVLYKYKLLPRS

COc1ccc(CN(C(=O)CCN2C(=O)CCCC2=O)c2cc(OC)c(OC)c(OC)c2)cc1 [Compound 14, 3-(2,6-dioxopiperidin-1-yl)-N-(4-methoxybenzyl)-N-(3,4,5-trimethoxyphenyl)propanamide]
IC50 [1]: > 1000 nM | IC50 [2]: 1430 nM | viability at 10 µM [3]: 41.1% | growth of subcutaneous tumours ([4]; nude mice bearing HepG2 cells): inhibited the growth of subcutaneous tumours | tumour growth inhibition rate ([4]; tumour weight, nude mice bearing HepG2 cells): 50.3% | tumour volume ([4]; vs control group): significantly lower than that in control group | tumour weight ([4]; vs control group): lower than that of control group | reversibility of LSD1 inhibition [5]: inhibits LSD1 in a reversible manner
